Assay results taken from US10363239B2, “Method for inhibiting growth of cancer cells” (Pain Therapeutics, Inc., priority 2013, dated 2019).
Read-outs that look alike come from different tables or passages of the source.

How the values were obtained:
[1] = molecular target: FLNA pentapeptide of SEQ ID NO: 1 (Bn-VAKGL) (Homo sapiens, UniProt P21333); experiment: FITC-NLX-based FLNA screening assay (inhibition of FITC-naloxone binding to Bn-VAKGL on streptavidin plates); conditions: 10 nM FITC-NLX
mu opiate receptor (MOR) = experiment: MOR agonist activity using [35S]GTPγS binding assay in striatal membranes; format: biochemical; conditions: for MOR agonist activity ([35S]GTPγS binding), FLNA-Binding Compound as Agonist 1 μM + BFNA: 1 μM compound + 1 μM β-funaltrexamine
Summary of the method: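 Striatal membranes (200 μg) were preincubated 5 min at 30 °C in HEPES pH 7.5 with 100 mM NaCl, 1 mM MgCl2 and 0.5 nM [35S]GTPγS, then 5 min more with 0.1–10 μM compound. Gαo was immunoprecipitated and bound radioactivity counted by scintillation.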

[2] = read-out: Percent Binding Inhibition, FLNA-binding compound 0.01 μM
[3] = read-out: Percent Binding Inhibition, FLNA-binding compound 0.1 μM
[4] = read-out: Percent Binding Inhibition, FLNA-binding compound 1 μM
[5] = Series C-1, 0.1 μM compound, relative to DAMGO
[6] = Series C-1, 0.1 μM compound, [35S]GTPγS binding to Gαo, striatal membranes
[7] = Series C-1, 1 μM compound + 1 μM β-FNA
[8] = Series C-1, 1 μM compound + β-FNA, relative to DAMGO + BFNA
[9] = Series C-1, 1 μM compound, relative to DAMGO
[10] = Series C-1, 1 μM compound, [35S]GTPγS binding to Gαo, striatal membranes
[11] = Series B, 0.1 μM compound, relative to DAMGO
[12] = Series B, 0.1 μM compound, [35S]GTPγS binding to Gαo, striatal membranes
[13] = Series B, 1 μM compound + 1 μM β-FNA
[14] = Series B, 1 μM compound + β-FNA, relative to DAMGO + BFNA
[15] = Series B, 1 μM compound, relative to DAMGO
[16] = Series B, 1 μM compound, [35S]GTPγS binding to Gαo, striatal membranes
[17] = FLNA-binding compound 0.01 μM, read-out: Percent Binding Inhibition
[18] = FLNA-binding compound 0.1 μM, read-out: Percent Binding Inhibition
[19] = FLNA-binding compound 1 μM, read-out: Percent Binding Inhibition
[20] = 0.1 μM compound relative to DAMGO
[21] = 1 μM compound + BFNA relative to DAMGO + BFNA
[22] = 1 μM compound relative to DAMGO

| SMILES | inhibition at 0.01 µM [1, 2] [%] | inhibition at 0.1 µM [1, 3] [%] | inhibition at 1 µM [1, 4] [%] | % DAMGO (0.1 μM) (mu opiate receptor (MOR); [5]) [%] | Concentration of FLNA-Binding Compound as Agonist 0.1 μM (mu opiate receptor (MOR); [6]) [%] | Concentration of FLNA-Binding Compound as Agonist 1 μM + BFNA (mu opiate receptor (MOR); [7]) [%] | % DAMGO + BFNA (mu opiate receptor (MOR); [8]) [%] | % DAMGO (1 μM) (mu opiate receptor (MOR); [9]) [%] | Concentration of FLNA-Binding Compound as Agonist 1 μM (mu opiate receptor (MOR); [10]) [%] | inhibition at 0.01 µM [1, 17] [%] | inhibition at 0.1 µM [1, 18] [%] | inhibition at 1 µM [1, 19] [%] | MOR agonist activity ([35S]GTPγS binding), FLNA-Binding Compound as Agonist 0.1 μM (mu opiate receptor (MOR); 0.1 μM compound) [%] | % DAMGO (0.1 μM) (mu opiate receptor (MOR); [20]) [%] | MOR agonist activity ([35S]GTPγS binding), FLNA-Binding Compound as Agonist 1 μM (mu opiate receptor (MOR); 1 μM compound) [%] | MOR agonist activity ([35S]GTPγS binding), FLNA-Binding Compound as Agonist 1 μM + BFNA (mu opiate receptor (MOR)) [%] | % DAMGO + BFNA (mu opiate receptor (MOR); [21]) [%] | % DAMGO (1 μM) (mu opiate receptor (MOR); [22]) [%] | also measured |
| --- | --- | --- | --- | --- | --- | --- | --- | --- | --- | --- | --- | --- | --- | --- | --- | --- | --- | --- | --- |
| O=S(=O)(c1ccc(Br)cc1C(F)(F)F)N1CCC2(CC1)OCCN2S(=O)(=O)c1ccc(Br)cc1C(F)(F)F [Compound C0068] | 53.7 | 58.6 | 62.2 | 53.4 | 107.2 | 165.9 | 307.8 | 83.8 | 263.1 |  |  |  |  |  |  |  |  |  |  |
| COc1cccc(CCC(=O)CC2c3c(cc4c(c3OC)OCO4)CC[N+]2(C)C)c1 (stereo not drawn) [Compound B0034] | 49.1 | 54.2 | 59.1 |  |  |  |  |  |  |  |  |  |  |  |  |  |  |  | % DAMGO (0.1 μM) (mu opiate receptor (MOR); [11]): 71.6%; MOR agonist activity, percent [35S]GTPγS binding at the stated compound concentration (mu opiate receptor (MOR); [12]): 122.5%; MOR agonist activity, percent [35S]GTPγS binding at the stated compound concentration (mu opiate receptor (MOR); [13]): 41.8%; % DAMGO + BFNA (mu opiate receptor (MOR); [14]): 80.2%; % DAMGO (1 μM) (mu opiate receptor (MOR); [15]): 88.1%; MOR agonist activity, percent [35S]GTPγS binding at the stated compound concentration (mu opiate receptor (MOR); [16]): 235.2% |
| O=C1CNC2(CCNCC2)N1Cc1ccccc1 [Compound C0114M] | 57.1 | 63.2 | 66.7 |  |  |  |  |  |  |  |  |  |  |  |  |  |  |  | % DAMGO (0.1 μM) (mu opiate receptor (MOR); Series C-2, 0.1 μM compound, relative to DAMGO): 77.6%; MOR agonist activity, percent [35S]GTPγS binding at the stated compound concentration (mu opiate receptor (MOR); Series C-2, 0.1 μM compound, [35S]GTPγS binding to Gαo, striatal membranes): 114.0%; MOR agonist activity, percent [35S]GTPγS binding at the stated compound concentration (mu opiate receptor (MOR); Series C-2, 1 μM compound + 1 μM β-FNA): 35.9%; % DAMGO + BFNA (mu opiate receptor (MOR); Series C-2, 1 μM compound + β-FNA, relative to DAMGO + BFNA): 91.3%; % DAMGO (1 μM) (mu opiate receptor (MOR); Series C-2, 1 μM compound, relative to DAMGO): 71.4%; MOR agonist activity, percent [35S]GTPγS binding at the stated compound concentration (mu opiate receptor (MOR); Series C-2, 1 μM compound, [35S]GTPγS binding to Gαo, striatal membranes): 144.3% |
| O=C(c1ccc([N+](=O)[O-])cc1)N1CCC2(CC1)OCCN2S(=O)(=O)c1ccc([N+](=O)[O-])cc1 [Compound C0022] | 34.5 | 37.6 | 43.9 | 113.5 | 194.3 | 13.4 | 25.7 | 123.2 | 328.7 |  |  |  |  |  |  |  |  |  |  |
| COc1ccc(C(=O)N2CCC3(CC2)OCCN3S(=O)(=O)c2ccc(OC)cc2)cc1 [Compound C0018] |  |  |  | 110.7 | 195.5 | 106.5 | 162.1 | 95.5 | 247.7 | 42.3 | 45.9 | 53.4 |  |  |  |  |  |  |  |
| COc1ccc(OCC(O)CN2CC(C)OC(C)C2)cc1 (stereo not drawn) [Compound A0048] | 38.5 | 44 | 46.9 |  |  |  |  |  |  |  |  |  | 233.7 | 119.1 | 302.9 | 167.2 | 226.3 | 109.7 |  |
| COc1ccccc1CC(O)CC1c2c(cc3c(c2OC)OCO3)CCN1C (stereo not drawn) [Compound B0030] |  |  |  |  |  |  |  |  |  | 47 | 50.5 | 57.6 |  |  |  |  |  |  | % DAMGO (0.1 μM) (mu opiate receptor (MOR); [11]): 62.6%; MOR agonist activity, percent [35S]GTPγS binding at the stated compound concentration (mu opiate receptor (MOR); [12]): 107.2%; MOR agonist activity, percent [35S]GTPγS binding at the stated compound concentration (mu opiate receptor (MOR); [13]): 90.1%; % DAMGO + BFNA (mu opiate receptor (MOR); [14]): 172.9%; % DAMGO (1 μM) (mu opiate receptor (MOR); [15]): 103.4%; MOR agonist activity, percent [35S]GTPγS binding at the stated compound concentration (mu opiate receptor (MOR); [16]): 276.1% |
| OC(COc1cccc(F)c1)CN1CCc2ccccc2C1 (stereo not drawn) [Compound A0055] |  |  |  |  |  |  |  |  |  | 28.1 | 32.4 | 41.8 | 89.8 | 53.2 | 195.2 | 33.5 | 102.4 | 78.4 |  |
| COc1ccc(N2CCN(CC(O)COC3CC(C)CCC3C(C)C)CC2)c(OC)c1 (stereo not drawn) [Compound A0012] | 39.7 | 49.6 | 54.4 |  |  |  |  |  |  |  |  |  | 149.3 | 99.9 | 185.7 | 122.4 | 461.9 | 80.7 |  |
